The values below come from patent US9556179B2 (BRISTOL-MYERS SQUIBB COMPANY, priority 2012, dated 2017).

The target of one assay is CK1ε (Homo sapiens (Human), UniProt P49674). In words: CK1ε kinase assay (Caliper LABCHIP electrophoretic separation of fluoresceinated peptide substrate and product). The class given is biochemical. The note with it: 200 pM enzyme, 50 μM ATP, 22 hours at room temperature. In short, it runs like this:
(§1)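 Each reaction was incubated 22 hours at room temperature and terminated with EDTA. Read-out was microfluidic electrophoretic separation of fluoresceinated substrate and phospho-product.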

The target in a further assay is CK1δ (Homo sapiens (Human), UniProt P48730). In words: CK1δ kinase assay (Caliper LABCHIP electrophoretic separation of fluoresceinated peptide substrate and product). Type of assay: biochemical. The settings on record: 200 pM enzyme, 50 μM ATP, 22 hours at room temperature. The method, boiled down:
as §1

In general, IC50 refers to the concentration needed to halve the response being measured. A low value points to greater potency.

Structures are written as SMILES.

Sequence of CK1δ (P48730 whole entry): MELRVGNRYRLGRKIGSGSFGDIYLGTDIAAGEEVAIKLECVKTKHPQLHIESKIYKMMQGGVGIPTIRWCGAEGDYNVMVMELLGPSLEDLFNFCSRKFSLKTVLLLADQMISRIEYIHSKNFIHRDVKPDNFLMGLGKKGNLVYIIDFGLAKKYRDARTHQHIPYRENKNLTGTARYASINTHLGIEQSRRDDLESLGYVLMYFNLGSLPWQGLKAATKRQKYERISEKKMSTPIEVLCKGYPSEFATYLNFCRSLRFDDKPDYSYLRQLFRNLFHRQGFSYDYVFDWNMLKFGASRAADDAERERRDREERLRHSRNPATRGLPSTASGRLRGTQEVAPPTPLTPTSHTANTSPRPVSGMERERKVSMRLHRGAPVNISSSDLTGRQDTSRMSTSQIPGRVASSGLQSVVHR
Sequence of CK1ε (P49674 whole entry): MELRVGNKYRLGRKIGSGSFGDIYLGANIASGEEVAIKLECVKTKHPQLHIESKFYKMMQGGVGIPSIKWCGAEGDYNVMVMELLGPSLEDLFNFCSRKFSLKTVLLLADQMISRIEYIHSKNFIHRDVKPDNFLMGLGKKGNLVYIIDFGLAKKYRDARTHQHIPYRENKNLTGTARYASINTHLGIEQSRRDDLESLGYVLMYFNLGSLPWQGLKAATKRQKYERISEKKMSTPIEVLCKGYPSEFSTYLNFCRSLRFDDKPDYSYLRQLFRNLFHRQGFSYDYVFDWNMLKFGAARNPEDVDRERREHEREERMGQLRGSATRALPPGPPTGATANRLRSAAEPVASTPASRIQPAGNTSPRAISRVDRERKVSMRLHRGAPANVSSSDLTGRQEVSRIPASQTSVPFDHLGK

For the compound `O=C(Nc1cn2nc(-c3c(-c4ccc(F)cc4)ncn3C3CCN(CCC(F)(F)F)CC3)ccc2n1)c1ccnc(N2CCOCC2)c1` [Compound 107, N-(6-(4-(4-fluorophenyl)-1-(1-(3,3,3-trifluoropropyl)piperidin-4-yl)-1H-imidazol-5-yl)imidazo[1,2-b]pyridazin-2-yl)-2-morpholinoisonicotinamide], the IC50 against CK1ε is 1.92 nM; at CK1δ it was 0.467 nM.

For the compound `Cc1nc(-c2cccnc2)sc1C(=O)Nc1cn2nc(-c3c(-c4ccc(F)cc4)ncn3C3CN(C(=O)CN)C3)ccc2n1` [Compound 156, N-(6-(1-(1-(2-aminoacetyl)azetidin-3-yl)-4-(4-fluorophenyl)-1H-imidazol-5-yl)imidazo[1,2-b]pyridazin-2-yl)-4-methyl-2-(pyridin-3-yl)thiazole-5-carboxamide], the figures for the IC50 against CK1ε and against CK1δ were 0.976 nM and 0.249 nM, respectively.

With `Cc1nc(-c2ccc(F)cc2)c(-c2ccc3nc(NC(=O)c4ccccc4CN(C)C)cn3n2)n1C` [Compound 392, 2-((dimthylamino)methyl)-N-(6-(4-(4-fluorophenyl)-1,2-dimethyl-1H-imidazol-5-yl)imidazo[1,2-b]pyridazin-2-yl)benzamide], the IC50 against CK1ε amounted to 54.5 nM; at CK1δ it was 16.7 nM.

For the compound `O=C(Nc1cn2nc(-c3c(-c4ccc(F)cc4)ncn3CCOCCO)ccc2n1)c1ccnc(F)c1` [Compound 234], the IC50 against CK1ε was determined as 2.31 nM; against CK1δ it was 0.456 nM.

Regarding `Cc1nc(-c2ccc(F)cc2)c(-c2ccc3nc(NC(=O)c4ccc5ncccc5n4)cn3n2)n1C` [Compound 312, N-(6-(4-(4-fluorophenyl)-1,2-dimethyl-1H-imidazol-5-yl)imidazo[1,2-b]pyridazin-2-yl)-1,5-naphthyridine-2-carboxamide], the IC50 on CK1ε was 19.6 nM; on CK1δ, 8.38 nM.

As for `O=C(Nc1cn2nc(-c3c(-c4ccc(F)cc4)ncn3C3CCN(CCCF)CC3)ccc2n1)c1ccnc(F)c1` [Compound 33, 2-fluoro-N-(6-(4-(4-fluorophenyl)-1-(1-(3-fluoropropyl)piperidin-4-yl)-1H-imidazol-5-yl)imidazo[1,2-b]pyridazin-2-yl)isonicotinamide], the IC50 on CK1ε amounted to 1.9 nM; against CK1δ it was 0.378 nM.

On to `Cc1nc(-c2ccc(F)cc2)c(-c2ccc3nc(NC(=O)c4ccnc(F)c4)cn3n2)n1C1CCN(CCC(F)(F)F)CC1` [Compound 145, 2-fluoro-N-(6-(4-(4-fluorophenyl)-2-methyl-1-(1-(3,3,3-trifluoropropyl)piperidin-4-yl)-1H-imidazol-5-yl)imidazo[1,2-b]pyridazin-2-yl)isonicotinamide], for which the figures for the IC50 against CK1ε and on CK1δ were 9.51 nM and 0.962 nM, respectively.

Regarding `Cc1nc(C(=O)Nc2cn3nc(-c4c(-c5ccc(F)cc5)nc(C)n4C)ccc3n2)c[nH]1` [Compound 372, N-(6-(4-(4-fluorophenyl)-1,2-dimethyl-1H-imidazol-5-yl)imidazo[1,2-b]pyridazin-2-yl)-2-methyl-1H-imidazole-4-carboxamide], the figures for the IC50 at CK1ε and against CK1δ were 28.3 nM and 2.19 nM, respectively.

Take `O=C(Nc1cn2nc(-c3c(-c4ccc(F)cc4)ncn3C3CCN(C(=O)CC(F)(F)F)CC3)ccc2n1)c1ccnc(F)c1` [Compound 42, 2-fluoro-N-(6-(4-(4-fluorophenyl)-1-(1-(3,3,3-trifluoropropanoyl)piperidin-4-yl)-1H-imidazol-5-yl)imidazo[1,2-b]pyridazin-2-yl)isonicotinamide]: the IC50 on CK1ε came to 2.93 nM; against CK1δ, 2.79 nM.

On to `O=C(Nc1cn2nc(-c3c(-c4ccc(F)cc4)ncn3C3CCN(C[C@H](O)C(F)(F)F)CC3)ccc2n1)c1cc(F)nc(F)c1` [Compound 91, (S)-2,6-difluoro-N-(6-(4-(4-fluorophenyl)-1-(1-(3,3,3-trifluoro-2-hydroxypropyl)piperidin-4-yl)-1H-imidazol-5-yl)imidazo[1,2-b]pyridazin-2-yl)isonicotinamide], for which the IC50 against CK1ε was determined as 0.796 nM; against CK1δ, 0.296 nM.

`O=C(Nc1cn2nc(-c3c(-c4ccccc4F)ncn3CC(F)F)ccc2n1)c1ccnc(F)c1` [Compound 246, N-(6-(1,(2,2-difluoroethyl)-4-(2-fluorophenyl)-1H-imidazol-5-yl)imidazo[1,2-b]pyridazin-2-yl)-2-fluoroisonicotinamide]: the IC50 on CK1ε came to 5.96 nM; against CK1δ, 0.769 nM.

As to `O=C(Nc1cn2nc(-c3c(-c4ccc(F)cc4)nc4ccccn34)ccc2n1)c1cncc(Cl)c1` [Compound 201, 5-chloro-N-(6-(2-(4-fluorophenyl)imidazo[1,2-a]pyridin-3-yl)imidazo[1,2-b]pyridazin-2-yl) nicotinamide], the values for the IC50 against CK1ε and at CK1δ were 3.04 nM and 1.21 nM, respectively.

Consider `Cc1nc(-c2ccc(F)cc2)c(-c2ccc3nc(NC(=O)c4snnc4-c4ccccc4)cn3n2)n1C` [Compound 340, N-(6-(4-(4-fluorophenyl)-1,2-dimethyl-1H-imidazol-5-yl)imidazo[1,2-b]pyridazin-2-yl)-4-phenyl-1,2,3-thiadiazole-5-carboxamide], for which the IC50 worked out at 6.28 nM on CK1ε and 0.4 nM at CK1δ.

Regarding `O=C(Nc1cn2nc(-c3c(-c4ccc(F)cc4)ncn3C3CCN(C(=O)OC4CCOCC4)CC3)ccc2n1)c1ccnc(F)c1` [Compound 81, tetrahydro-2H-pyran-4-yl 4-(5-(2-(2-fluoroisonicotinamido)imidazo[1,2-b]pyridazin-6-yl)-4-(4-fluorophenyl)-1H-imidazol-1-yl)piperidine-1-carboxylate], the IC50 at CK1ε stood at 1.63 nM; on CK1δ it was 0.311 nM.

Turning to `O=C(Nc1cn2nc(-c3c(-c4ccc(F)cc4)nc4ccccn34)ccc2n1)C1CCOCC1` [Compound 220, N-(6-(2-(4-fluorophenyl)imidazo[1,2-a]pyridin-3-yl)imidazo[1,2-b]pyridazin-2-yl)tetrahydro-2H-pyran-4-carboxamide], the IC50 came to 11.4 nM against CK1ε and 0.734 nM on CK1δ.

In the case of `CC(C)(C)C(=O)Nc1cn2nc(-c3c(-c4ccc(F)cc4)ncn3Cc3cccnc3)ccc2n1` [Compound 281, N-(6-(4-(4-fluorophenyl)-1-(pyridin-3-ylmethyl)-1H-imidazol-5-yl)imidazo[1,2-b]pyridazin-2-yl)pivalamide], the IC50 against CK1ε is 7.79 nM; at CK1δ, 1.81 nM.

With `O=C(Nc1cn2nc(-c3c(-c4ccc(F)cc4)nc4ccccn34)ccc2n1)c1cccc(-c2cccnc2)c1` [Compound 204, N-(6-(2-(4-fluorophenyl)imidazo[1,2-a]pyridin-3-yl)imidazo[1,2-b]pyridazin-2-yl)-3-(pyridin-3-yl)benzamide], the IC50 stood at 1.83 nM at CK1ε and 2.09 nM against CK1δ.

For the compound `COCC(=O)N1CCC(n2cnc(-c3ccc(F)cc3)c2-c2ccc3nc(NC(=O)c4ccnc(F)c4)cn3n2)CC1` [Compound 47, 2-fluoro-N-(6-(4-(4-fluorophenyl)-1-(1-(2-methoxyacetyl)piperidin-4-yl)-1H-imidazol-5-yl)imidazo[1,2-b]pyridazin-2-yl)isonicotinamide], the values for the half-maximal inhibitory concentration (IC50) against CK1ε and against CK1δ were 1.1 nM and 0.225 nM, respectively.

On to `O=C(Nc1cn2nc(-c3c(-c4ccc(F)cc4)ncn3CCc3c[nH]cn3)ccc2n1)c1ccnc(F)c1` [Compound 255, 2-fluoro-N-(6-(4-(4-fluorophenyl)-1-(2-(1H-imidazol-4-yl)ethyl)-1H-imidazol-5-yl)imidazo[1,2-b]pyridazin-2-yl)isonicotinamide], for which the IC50 at CK1ε stood at 2.45 nM; against CK1δ it was 0.386 nM.
